Holding throughout (type): cell-based
Assay [1] has as its system Ba/F3 cells KRAS G12D. As to the kind of experiment: Ba/F3 proliferation assay (KRAS G12D). Conditions: AlamarBlue viability. The essentials: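 Ba/F3 cells retrovirally transduced with KRAS G12 mutant, puromycin-selected, grown IL-3-independent; seeded in RPMI-1640 + 10% FCS without IL-3. Logarithmic compound dose series in duplicate, 72 h at 37° C., AlamarBlue fluorescence as % of DMSO control; IC50 from four-parameter non-linear regression.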

Assay [2] relates to AsPC-1 cells. Put plainly: AsPC-1 CTG proliferation assay (120 h) (pancreatic cancer, G12D). The protocol:
(§1) AsPC-1 cells (ATCC CRL-1682) are dispensed into black 384-well plates, flat and clear bottom (Greiner, PNr. 781091) at a density of 500 cells per well in 60 μl RPMI ATCC-Formulation (PAN P04-18047)+10% FCS (fetal calf serum, HyClone, SH30084.03). Cells are incubated overnight at 37° C. in a humidified tissue culture incubator at 5% CO2. Compounds (10 mM stock in DMSO) are added at logarithmic dose series using the ECHO acoustic liquid handler system (Beckman Coulter), normalizing for added DMSO and including DMSO controls. All compound treatments are performed in technical duplicates. For the TO time point measurement, untreated cells are analyzed at the time of compound addition. Plates are incubated for 120 h, and cell viability is measured using CellTiter-Glo luminescent cell viability reagent (Promega product code G7570). Viability (stated as percent of control) is defined as relative luminescence units RLU of each well divided by the RLU of cells in DMSO controls. IC50 values are determined from viability measurements by non-linear regression using a four-parameter model.
(§2) IC50 values of representative compounds according to the invention measured with these assays in the indicated cell lines are presented in Table 46.

Assay [3] concerns LOVO cells. As to the kind of experiment: LOVO CTG proliferation assay (120 h) (CRC, G13D). Here is the method: as §1, with “LOVO” for “AsPC-1”, “No. CCL-229)” for “CRL-1682)”, “1000” for “500”, “DMEM (Sigma D6429)+10%” for “RPMI ATCC-Formulation (PAN P04-18047)+10%”
as §2

The record followed here is patent publication US20250019385A1, “SPIROCYCLIC ANNULATED 2-AMINO-3-CYANO THIOPHENES AND DERIVATIVES FOR THE TREATMENT OF CANCER” (Boehringer Ingelheim International GmbH, priority 2023, published 2025).

Where two headings read alike, the source gives them in different places.

Consider `CO[C@H]1CCN(C)[C@@H]1[C@H](C)Oc1nc(-c2onc3c2CCC[C@@]32CCCc3sc(N)c(C#N)c32)nc2c1CN(C1COC1)C[C@]21CCOC1` [I-57], for which the IC50 in assay [1] (Mus musculus, BaF3, 72 h) was 11 nM; in assay [2] (Homo sapiens, ASPC1), 129 nM; in assay [3] (Homo sapiens) it was 39 nM.
For the compound `CO[C@@H]1C[C@@H]([C@H](C)Oc2nc(-c3onc4c3CCC[C@@]43CCCc4sc(N)c(C#N)c43)nc3c2CN(C2COC2)C[C@]32CCOC2)N(C)C1` [I-58], the 50% inhibitory concentration (IC50) in assay [1] (Mus musculus, BaF3, 72 h) worked out at 22 nM; in assay [2] (Homo sapiens, ASPC1), 314 nM; in assay [3] (Homo sapiens) it was 84 nM.
The matching figures for `CO[C@H]1CCN(C)[C@@H]1[C@H](C)Oc1nc(-c2noc3c2CCC[C@@]32CCCc3sc(N)c(C#N)c32)nc2c1n(C)c(=O)n2[C@@H]1CCOC1` [II-1]: 9 nM, 323 nM and 2 nM.
In the same order, the values of `C[C@H](Oc1nc(-c2noc3c2CCC[C@@]32CCCc3sc(N)c(C#N)c32)nc2c1n(C)c(=O)n2[C@@H]1CCOC1)[C@@H]1CCCN1C` [II-2] are 9 nM, 338 nM and 8 nM.
The matching figures for `CO[C@H]1CCN(C)[C@@H]1[C@H](C)Oc1nc(-c2noc3c2CCC[C@@]32CCCc3sc(N)c(C#N)c32)nc2c1n(C)c(=O)n2[C@@H]1CCCOC1` [II-3]: 9 nM, 236 nM and 2 nM.
On to `C[C@H](Oc1nc(-c2noc3c2CCC[C@@]32CCCc3sc(N)c(C#N)c32)nc2c1cnn2[C@@H]1CCOC1)[C@@H]1CCCN1C` [II-4], for which the IC50 was determined as 16 nM in assay [1] (Mus musculus, BaF3, 72 h); 300 nM in assay [2] (Homo sapiens, ASPC1); 24 nM in assay [3] (Homo sapiens).
The matching figures for `C[C@H](Oc1nc(-c2noc3c2CCC[C@@]32CCCc3sc(N)c(C#N)c32)nc2c1n(C)c(=O)n2[C@H]1CO[C@@H](C)C1)[C@@H]1CCCN1C` [II-5]: 2 nM, 40 nM and 3 nM.
In the same order, the values of `CO[C@@H]1C[C@@H]([C@H](C)Oc2nc(-c3noc4c3CCC[C@@]43CCCc4sc(N)c(C#N)c43)nc3c2n(C)c(=O)n3[C@@]23COC[C@@H]2C3)N(C)C1` [II-6] are 11 nM, 265 nM and 11 nM.
The matching figures for `C[C@H](Oc1nc(-c2noc3c2CCC[C@@]32CCCc3sc(N)c(C#N)c32)nc2c1CN(c1ncccn1)[C@]21CCOC1)[C@@H]1CCCN1C` [II-7a]: 28 nM, 307 nM and 11 nM.
With `C[C@H](Oc1nc(-c2noc3c2CCC[C@@]32CCCc3sc(N)c(C#N)c32)nc2c1CN(c1ncccn1)[C@@]21CCOC1)[C@@H]1CCCN1C` [II-7b], the IC50 in assay [1] (Mus musculus, BaF3, 72 h) was 127 nM; in assay [2] (Homo sapiens, ASPC1) it was 629 nM; in assay [3] (Homo sapiens), 130 nM.
The matching figures for `C[C@H](Oc1nc(-c2noc3c2CCC[C@@]32CCCc3sc(N)c(C#N)c32)nc2c1COC[C@]21CCOC1)[C@@H]1CCCN1C` [II-8]: 4 nM, 62 nM and 2 nM.
The matching figures for `C[C@H](Oc1nc(-c2noc3c2CCC[C@@]32CCCc3sc(N)c(C#N)c32)nc2c1COC[C@@]21CCOC1)[C@@H]1CCCN1C` [II-9a]: 59 nM, 1070 nM and 274 nM.
The matching figures for `C[C@H](Oc1nc(-c2noc3c2CCC[C@@]32CCCc3sc(N)c(C#N)c32)nc2c1CCO[C@]21CCOC1)[C@@H]1CCCN1C` [II-9b]: 8 nM, 414 nM and 12 nM.
Turning to `C[C@H](Oc1nc(-c2noc3c2CCC[C@@]32CCCc3sc(N)c(C#N)c32)nc2c1CCCO[C@]21CCOC1)[C@@H]1CCCN1C` [II-10], the IC50 in assay [1] (Mus musculus, BaF3, 72 h) was determined as 22 nM; in assay [2] (Homo sapiens, ASPC1), 264 nM; in assay [3] (Homo sapiens) it was 11 nM.
For the compound `CO[C@@H]1C[C@@H]([C@H](C)Oc2nc(-c3noc4c3CCC[C@@]43CCCc4sc(N)c(C#N)c43)nc3c2COC[C@]32CCOC2)N(C)C1` [II-11], the IC50 in assay [1] (Mus musculus, BaF3, 72 h) was determined as 4 nM; in assay [2] (Homo sapiens, ASPC1), 81 nM; in assay [3] (Homo sapiens), 6 nM.
As to `C[C@H](Oc1nc(-c2noc3c2CCC[C@@]32CCCc3sc(N)c(C#N)c32)nc2c1CN(C1COC1)C[C@]21CCOC1)[C@@H]1CCCN1C` [II-12], the IC50 in assay [1] (Mus musculus, BaF3, 72 h) came out at 8 nM; in assay [2] (Homo sapiens, ASPC1) it was 129 nM; in assay [3] (Homo sapiens), 71 nM.
In the same order, the values of `CO[C@H]1CCN(C)[C@@H]1[C@H](C)Oc1nc(-c2noc3c2CCC[C@@]32CCCc3sc(N)c(C#N)c32)nc2c1CN(C1COC1)C[C@]21CCOC1` [II-13] are 7 nM, 43 nM and 8 nM.
Regarding `CO[C@@H]1C[C@@H]([C@H](C)Oc2nc(-c3noc4c3CCC[C@@]43CCCc4sc(N)c(C#N)c43)nc3c2CN(C2COC2)C[C@]32CCOC2)N(C)C1` [II-14], the IC50 in assay [1] (Mus musculus, BaF3, 72 h) came out at 11 nM; in assay [2] (Homo sapiens, ASPC1) it was 57 nM; in assay [3] (Homo sapiens), 18 nM.
The matching figures for `C[C@H](Oc1nc(-c2noc3c2CCC[C@@]32CCCc3sc(N)c(C#N)c32)nc2c1CNC[C@]21CCOC1)[C@@H]1CCCN1C` [II-15]: 8 nM, 179 nM and 17 nM.
On to `C[C@H](Oc1nc(-c2noc3c2CCC[C@@]32SCCc3sc(N)c(C#N)c32)nc2c1COC[C@]21CCOC1)[C@@H]1CCCN1C` [II-16], for which the concentration for half-maximal inhibition (IC50) was 3 nM in assay [1] (Mus musculus, BaF3, 72 h); 34 nM in assay [2] (Homo sapiens, ASPC1); 7 nM in assay [3] (Homo sapiens).
As to `C[C@H](Oc1nc(-c2noc3c2CCC[C@@]32CCCc3sc(N)c(C#N)c32)nc2c1CN(C1COC1)C[C@]21CCOC1)[C@@H]1CC[C@H](C)N1C` [II-17], the half-maximal inhibitory concentration (IC50) came to 6 nM in assay [1] (Mus musculus, BaF3, 72 h); 237 nM in assay [2] (Homo sapiens, ASPC1); 109 nM in assay [3] (Homo sapiens).
In the same order, the values of `C[C@H](Oc1nc(-c2noc3c2CCC[C@@]32CCCc3sc(N)c(C#N)c32)nc2c1CCC21CCOC1)[C@@H]1CCCN1C` (stereo partly drawn) [II-18] are 20 nM, 315 nM and 141 nM.
Take `C[C@H](Oc1nc(-c2noc3c2CCC[C@@]32CCCc3sc(N)c(C#N)c32)nc2c1CC[C@]21CNCCO1)[C@@H]1C[C@@H](F)CN1C` [II-20]: the half-maximal inhibitory concentration (IC50) in assay [1] (72 h) was 45 nM; in assay [2], 215 nM; in assay [3], 253 nM.
